System: 945468-187-T-J2-PDC spheroids viability
Experiment: Anticancer human tumor 945468-187-T-J2-PDC patient-derived rectal carcinoma cell line growth inhibition [PI3K]
Conditions: spheroids with HUVEC and MSC; for IC50: curve of first compound; for viability, T/C: stronger effect = lower value
How it was run: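 Agents were dosed from a top concentration near clinical Cmax (otherwise 10 microM) in half-log decrements, alone or combined with PI3K inhibitors. The spheroids contain tumor cells plus endothelial (HUVEC) and MSC stroma; viability is measured.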

[1] = second compound 0.0316 µM, first compound 0.0316 µM
[2] = second compound 0.0316 µM, first compound 0.1 µM
[3] = second compound 0.0316 µM, first compound 0.316 µM
[4] = second compound 0.0316 µM, first compound 1 µM
[5] = second compound 0.0316 µM, first compound 3.16 µM
[6] = second compound 0.0316 µM, first compound 10 µM
[7] = second compound 0.1 µM, first compound 0.0316 µM
[8] = second compound 0.1 µM, first compound 0.1 µM
[9] = second compound 0.1 µM, first compound 0.316 µM
[10] = second compound 0.1 µM, first compound 1 µM
[11] = second compound 0.1 µM, first compound 3.16 µM
[12] = second compound 0.1 µM, first compound 10 µM
[13] = second compound 0.316 µM, first compound 0.0316 µM
[14] = second compound 0.316 µM, first compound 0.1 µM
[15] = second compound 0.316 µM, first compound 0.316 µM
[16] = second compound 0.316 µM, first compound 1 µM
[17] = second compound 0.316 µM, first compound 3.16 µM
[18] = second compound 0.316 µM, first compound 10 µM
[19] = second compound 1 µM, first compound 0.0316 µM
[20] = second compound 1 µM, first compound 0.1 µM
[21] = second compound 1 µM, first compound 0.316 µM
[22] = second compound 1 µM, first compound 1 µM
[23] = second compound 1 µM, first compound 3.16 µM
[24] = second compound 1 µM, first compound 10 µM
[25] = second compound 3.16 µM, first compound 0.0316 µM
[26] = second compound 3.16 µM, first compound 0.1 µM
[27] = second compound 10 µM, first compound 0.0316 µM
[28] = second compound 10 µM, first compound 0.1 µM
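Also: spheroids exposed to compounds for seven days before reading.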

In the case of Cn1nccc1Nc1nccc(-c2ccn(C(CO)c3ccc(Cl)c(F)c3)c(=O)c2)n1 (stereo unspecified) + CC(Nc1ccc2c(c1)OCCn1cc(N3C(=O)OCC3C(F)F)nc1-2)C(N)=O, the IC50 (second compound 0.00316 µM) is reported as > 10 µM, the IC50 (second compound 0.01 µM) is reported as > 10 µM and the IC50 (second compound 0.0316 µM) is reported as > 10 µM. The IC50 (second compound 0.1 µM) was > 10 µM, the IC50 (second compound 0.316 µM) was > 10 µM and the IC50 (second compound 1 µM) was > 10 µM. For the same compound, the viability, T/C (second compound 0.00316 µM, first compound 0.0316 µM) was 92.2%, the viability, T/C (second compound 0.00316 µM, first compound 0.1 µM) was 114% and the viability, T/C (second compound 0.00316 µM, first compound 0.316 µM) was 88.5%. For the same compound, the viability, T/C (second compound 0.00316 µM, first compound 1 µM) was 102%, the viability, T/C (second compound 0.00316 µM, first compound 3.16 µM) was 90.7% and the viability, T/C (second compound 0.00316 µM, first compound 10 µM) was 79.9%. It also gave a viability, T/C (second compound 0.01 µM, first compound 0.0316 µM) of 124%, a viability, T/C (second compound 0.01 µM, first compound 0.1 µM) of 109% and a viability, T/C (second compound 0.01 µM, first compound 0.316 µM) of 101%. For the same compound, the viability, T/C (second compound 0.01 µM, first compound 1 µM) was 89.1%, the viability, T/C (second compound 0.01 µM, first compound 3.16 µM) was 91.9% and the viability, T/C (second compound 0.01 µM, first compound 10 µM) was 74.8%. For the same compound, the viability, T/C [1] was 118%, the viability, T/C [2] was 102% and the viability, T/C [3] was 92.6%. It also gave a viability, T/C [4] of 80%, a viability, T/C [5] of 83.6% and a viability, T/C [6] of 77.6%. It also gave a viability, T/C [7] of 113%, a viability, T/C [8] of 90.6% and a viability, T/C [9] of 124%. For the same compound, the viability, T/C [10] was 111%, the viability, T/C [11] was 101% and the viability, T/C [12] was 73.9%. It also gave a viability, T/C [13] of 74.3%, a viability, T/C [14] of 105% and a viability, T/C [15] of 86.5%. For the same compound, the viability, T/C [16] was 83%, the viability, T/C [17] was 85% and the viability, T/C [18] was 81.7%. For the same compound, the viability, T/C [19] was 79.2%, the viability, T/C [20] was 72.4% and the viability, T/C [21] was 84.3%. It also gave a viability, T/C [22] of 89.1%, a viability, T/C [23] of 75.5% and a viability, T/C [24] of 83.5%.
In the case of CC(=O)c1c(C)c2cnc(Nc3ccc(N4CCNCC4)cn3)nc2n(C2CCCC2)c1=O + CC(Nc1ncnc2nc[nH]c12)c1cc2cccc(Cl)c2c(=O)n1-c1ccccc1, the IC50 (second compound 0.0316 µM) is reported as > 0.1 µM, the IC50 (second compound 0.1 µM) is reported as > 0.1 µM and the IC50 (second compound 0.316 µM) is reported as > 0.1 µM. For the same compound, the IC50 (second compound 1 µM) was > 0.1 µM, the IC50 (second compound 3.16 µM) was > 0.1 µM and the IC50 (second compound 10 µM) was > 0.1 µM. It also gave a viability, T/C (second compound 0.0316 µM, first compound 0.000316 µM) of 104%, a viability, T/C (second compound 0.0316 µM, first compound 0.001 µM) of 80% and a viability, T/C (second compound 0.0316 µM, first compound 0.00316 µM) of 101%. For the same compound, the viability, T/C (second compound 0.0316 µM, first compound 0.01 µM) was 100%, the viability, T/C [1] was 90% and the viability, T/C [2] was 122%. For the same compound, the viability, T/C (second compound 0.1 µM, first compound 0.000316 µM) was 98.9%, the viability, T/C (second compound 0.1 µM, first compound 0.001 µM) was 101% and the viability, T/C (second compound 0.1 µM, first compound 0.00316 µM) was 89.4%. It also gave a viability, T/C (second compound 0.1 µM, first compound 0.01 µM) of 80.3%, a viability, T/C [7] of 104% and a viability, T/C [8] of 101%. For the same compound, the viability, T/C (second compound 0.316 µM, first compound 0.000316 µM) was 82.3%, the viability, T/C (second compound 0.316 µM, first compound 0.001 µM) was 108% and the viability, T/C (second compound 0.316 µM, first compound 0.00316 µM) was 103%. The viability, T/C (second compound 0.316 µM, first compound 0.01 µM) was 98.4%, the viability, T/C [13] was 113% and the viability, T/C [14] was 88.7%. For the same compound, the viability, T/C (second compound 1 µM, first compound 0.000316 µM) was 91.2%, the viability, T/C (second compound 1 µM, first compound 0.001 µM) was 103% and the viability, T/C (second compound 1 µM, first compound 0.00316 µM) was 85.4%. For the same compound, the viability, T/C (second compound 1 µM, first compound 0.01 µM) was 89.8%, the viability, T/C [19] was 90.7% and the viability, T/C [20] was 109%. It also gave a viability, T/C (second compound 3.16 µM, first compound 0.000316 µM) of 87.8%, a viability, T/C (second compound 3.16 µM, first compound 0.001 µM) of 87% and a viability, T/C (second compound 3.16 µM, first compound 0.00316 µM) of 102%. It also gave a viability, T/C (second compound 3.16 µM, first compound 0.01 µM) of 99.5%, a viability, T/C [25] of 111% and a viability, T/C [26] of 118%. For the same compound, the viability, T/C (second compound 10 µM, first compound 0.000316 µM) was 101%, the viability, T/C (second compound 10 µM, first compound 0.001 µM) was 100% and the viability, T/C (second compound 10 µM, first compound 0.00316 µM) was 101%. It also gave a viability, T/C (second compound 10 µM, first compound 0.01 µM) of 87.9%, a viability, T/C [27] of 99.5% and a viability, T/C [28] of 121%.
For C[C@@H](NC(=O)c1ncnc(N)c1Cl)c1ncc(C(=O)Nc2cc(C(F)(F)F)c(Cl)cn2)s1 + Cc1nc(NC(=O)N2CCCC2C(N)=O)sc1-c1ccnc(C(C)(C)C(F)(F)F)c1, the IC50 (second compound 0.0316 µM) was > 10 µM, the IC50 (second compound 0.1 µM) was > 10 µM and the IC50 (second compound 0.316 µM) was > 10 µM. The IC50 (second compound 1 µM) was > 10 µM, the IC50 (second compound 3.16 µM) was > 10 µM and the IC50 (second compound 10 µM) was > 10 µM. It also gave a viability, T/C [1] of 94.3%, a viability, T/C [2] of 92.5% and a viability, T/C [3] of 77.2%. For the same compound, the viability, T/C [4] was 91.5%, the viability, T/C [5] was 96.2% and the viability, T/C [6] was 69.2%. It also gave a viability, T/C [7] of 100%, a viability, T/C [8] of 80.3% and a viability, T/C [9] of 95.8%. It also gave a viability, T/C [10] of 77.4%, a viability, T/C [11] of 105% and a viability, T/C [12] of 93.7%. It also gave a viability, T/C [13] of 99.8%, a viability, T/C [14] of 82.9% and a viability, T/C [15] of 123%. It also gave a viability, T/C [16] of 93.4%, a viability, T/C [17] of 87% and a viability, T/C [18] of 85%. For the same compound, the viability, T/C [19] was 91.4%, the viability, T/C [20] was 102% and the viability, T/C [21] was 99%. The viability, T/C [22] was 102%, the viability, T/C [23] was 81.1% and the viability, T/C [24] was 86.1%. It also gave a viability, T/C [25] of 90.8%, a viability, T/C [26] of 91.5% and a viability, T/C (second compound 3.16 µM, first compound 0.316 µM) of 92.4%. For the same compound, the viability, T/C (second compound 3.16 µM, first compound 1 µM) was 89%, the viability, T/C (second compound 3.16 µM, first compound 3.16 µM) was 89.5% and the viability, T/C (second compound 3.16 µM, first compound 10 µM) was 83%. For the same compound, the viability, T/C [27] was 76.3%, the viability, T/C [28] was 70.1% and the viability, T/C (second compound 10 µM, first compound 0.316 µM) was 85.7%. It also gave a viability, T/C (second compound 10 µM, first compound 1 µM) of 68.7%, a viability, T/C (second compound 10 µM, first compound 3.16 µM) of 72.2% and a viability, T/C (second compound 10 µM, first compound 10 µM) of 80.2%.

— PubChem BioAssay AID1963972 (Molecular Pharmacology Branch, DTP, NCI, 2024)
